Earlier results in US20140018379A1, “PYRIMIDINE DERIVATIVES” (CONCERT PHARMACEUTICALS INC., priority 2010, published 2014).

Details: 12th CROI 2005, Abst 160

Cc1cc(/C=C/C#N)cc(C)c1Nc1ccnc(Nc2ccc(C#N)cc2)n1.Cl [rilpivirine, 4-[4-[4-[(E)-2-cyanovinyl]-2,6-dimethylphenylamino]pyrimidin-2-ylamino]benzonitrile hydrochloride]
safety and tolerability in clinical trials: safe and well-tolerated
most commonly reported adverse event (clinical trials): Headache
